From publication PMC9034380 (RSC Advances, 2021) come the findings set out here.

Molecules are shown by their SMILES.

What all share (format): cell-based
The test system of one experiment is Hh signaling pathway. The experiment is described as follows: Gli-luciferase. The note with it: for IC50: read-out: Gli-luc reporter IC50.
The next experiment has as its target Smo (Homo sapiens, UniProt Q99835). Briefly: Smo ciliary localization in NIH3T3 cells expressing Smo treated with Shh.
The next experiment concerns Daoy cells. The experiment is described as follows: Cell proliferation. The note with it: Homo sapiens, 48 h, read-out: cell viability.
For a further experiment, the target named is wild-type Smo (Mus musculus, UniProt P56726). The experiment is described as follows: Gli-Luc reporter assay in NIH3T3-Gli-Luc cells overexpressing wild-type Smo. A general note: In a reporter assay the amount or activity of a reporter protein is the signal.
Another experiment has as its target Smo D477G (Mus musculus, UniProt P56726, D477G). Briefly: Gli-Luc reporter assay in NIH3T3-Gli-Luc cells overexpressing Smo D477G.

Smo D477G, sequence (P56726 33-793 D477G): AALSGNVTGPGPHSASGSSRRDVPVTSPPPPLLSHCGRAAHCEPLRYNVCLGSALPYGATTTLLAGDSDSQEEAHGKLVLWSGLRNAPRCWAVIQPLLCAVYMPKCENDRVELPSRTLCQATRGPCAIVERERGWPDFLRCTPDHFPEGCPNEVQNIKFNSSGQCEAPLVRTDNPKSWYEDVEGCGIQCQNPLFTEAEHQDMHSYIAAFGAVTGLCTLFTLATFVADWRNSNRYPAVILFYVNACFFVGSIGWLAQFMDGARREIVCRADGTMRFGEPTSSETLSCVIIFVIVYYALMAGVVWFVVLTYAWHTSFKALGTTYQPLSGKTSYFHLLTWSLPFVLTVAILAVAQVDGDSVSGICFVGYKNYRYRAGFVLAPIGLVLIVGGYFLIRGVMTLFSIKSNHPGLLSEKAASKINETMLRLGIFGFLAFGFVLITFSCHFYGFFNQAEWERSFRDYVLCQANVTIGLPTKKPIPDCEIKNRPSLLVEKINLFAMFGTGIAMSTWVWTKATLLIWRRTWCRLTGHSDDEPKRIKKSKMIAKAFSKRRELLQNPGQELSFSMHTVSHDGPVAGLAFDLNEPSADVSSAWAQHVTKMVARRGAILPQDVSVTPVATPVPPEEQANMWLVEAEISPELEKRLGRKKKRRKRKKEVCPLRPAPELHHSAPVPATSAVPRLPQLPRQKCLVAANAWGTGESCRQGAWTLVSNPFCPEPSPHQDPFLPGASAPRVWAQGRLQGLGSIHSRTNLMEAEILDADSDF
Smo, sequence (Q99835 28-787): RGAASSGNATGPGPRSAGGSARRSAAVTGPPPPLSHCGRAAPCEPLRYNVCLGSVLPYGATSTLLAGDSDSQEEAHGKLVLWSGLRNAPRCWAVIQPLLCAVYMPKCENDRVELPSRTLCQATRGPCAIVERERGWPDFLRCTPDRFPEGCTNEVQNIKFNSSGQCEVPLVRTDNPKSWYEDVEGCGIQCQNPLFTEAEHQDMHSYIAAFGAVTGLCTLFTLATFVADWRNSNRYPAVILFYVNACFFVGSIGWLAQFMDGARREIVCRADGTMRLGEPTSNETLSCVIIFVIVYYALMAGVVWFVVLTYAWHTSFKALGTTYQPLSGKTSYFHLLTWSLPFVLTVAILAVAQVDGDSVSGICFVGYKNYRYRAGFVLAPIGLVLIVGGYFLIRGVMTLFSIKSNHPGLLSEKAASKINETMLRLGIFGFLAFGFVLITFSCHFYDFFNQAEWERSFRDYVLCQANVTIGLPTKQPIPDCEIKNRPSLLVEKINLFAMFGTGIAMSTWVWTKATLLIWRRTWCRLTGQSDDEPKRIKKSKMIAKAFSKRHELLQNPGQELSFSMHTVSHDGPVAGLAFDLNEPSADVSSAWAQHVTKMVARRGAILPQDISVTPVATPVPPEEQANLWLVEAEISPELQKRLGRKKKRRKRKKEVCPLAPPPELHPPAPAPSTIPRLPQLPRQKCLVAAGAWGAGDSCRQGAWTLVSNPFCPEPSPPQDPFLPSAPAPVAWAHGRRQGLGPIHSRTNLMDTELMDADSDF
wild-type Smo, sequence (P56726 33-793): as the sequence (P56726 33-793 D477G) above, with G445D counted along it

With `CS(=O)(=O)c1ccc(C(=O)Nc2ccc(Cl)c(-c3ccccn3)c2)c(Cl)c1` [Compound 1, vismodegib, reference compound], the IC50 – broadly, the concentration needed to halve the response being measured – with Hh signaling pathway was determined as 20 ± 10 nM.

For the molecule `COc1cc(NC(=O)c2cccnc2Cl)ccc1C(=O)Nc1ccc(Cl)c(-c2nc3ccccc3[nH]2)c1` [Compound 14], the IC50 with Hh signaling pathway came to 50 ± 20 nM.

In the case of `COc1cc(NC(=O)c2cccnc2)ccc1C(=O)Nc1ccc(Cl)c(-c2nc3ccccc3[nH]2)c1` [Compound 16], the IC50 in the experiment with Hh signaling pathway came to 80 ± 20 nM.

With `COc1cc(NC(=O)c2ccccc2Cl)ccc1C(=O)Nc1ccc(Cl)c(-c2ncc(-c3ccccc3)[nH]2)c1` [Compound 17], in the experiment with Hh signaling pathway, the IC50 is 120 ± 60 nM.

On to `COc1cc(NC(=O)c2ccc(Cl)cc2Cl)ccc1C(=O)Nc1ccc(Cl)c(-c2ncc(-c3ccccc3)[nH]2)c1` [Compound 18], for which, in the experiment on Hh signaling pathway (Gli-luc IC50 ratio to compound 17), the “loss of potency vs compound 17” value turned out to be 2.2 fold. Besides, the IC50 with Hh signaling pathway turned out to be 260 ± 80 nM.

Turning to `COc1cc(NC(=O)c2ccc(F)cc2)ccc1C(=O)Nc1ccc(Cl)c(-c2ncc(-c3ccccc3)[nH]2)c1` [Compound 20], the IC50 in the experiment on Hh signaling pathway came to 250 ± 40 nM.

As for `COc1cc(NC(=O)c2cccnc2Cl)ccc1C(=O)Nc1ccc(Cl)c(-c2ncc(-c3ccccc3)[nH]2)c1` [Compound 21], the “Smo ciliary translocation” value at Smo is given as “sharp drop”. Moreover, in the experiment on Daoy cells, the viability (commonly the share of living cells, or the viability signal relative to a control) at 1 µM came out at 72%. Moreover, the viability at 10 µM in the experiment with Daoy cells stood at 43%. Moreover, the results for the IC50 against wild-type Smo, at Smo D477G and in the experiment on Hh signaling pathway were 39 nM, 96 nM and 30 ± 10 nM, respectively. At Smo D477G (NIH3T3-Gli-Luc cells overexpressing Smo D477G), the “Hh pathway inhibition in mutant D477G” value is “slightly decreased”. Further, the “shift in IC50, mutant D477G vs WT” value on Smo D477G (Smo D477G vs wild-type Smo) stood at 2.4 fold. Further, the “potency compared to compound 3” value with Hh signaling pathway (Gli-luc reporter, fold higher than compound 3) was determined as 6 fold.

As for `COc1cc(NC(=O)c2ccc(Cl)nc2)ccc1C(=O)Nc1ccc(Cl)c(-c2ncc(-c3ccccc3)[nH]2)c1` [Compound 22], the IC50 with Hh signaling pathway was 150 ± 80 nM.

As for `COc1cc(NC(=O)c2cccnc2)ccc1C(=O)Nc1ccc(Cl)c(-c2ncc(-c3ccccc3)[nH]2)c1` [Compound 23], the IC50 in the experiment on Hh signaling pathway was 70 ± 20 nM.
